Measurements from PMC8541314, “Production and Purification of Two Bioactive Antimicrobial Peptides Using a Two-Step Approach Involving an Elastin-Like Fusion Tag” (Pharmaceuticals, 2021).

Key:
[1] = tested on: P. aeruginosa ATCC10145; assay: Broth microdilution MIC / growth inhibition; format: cell-based, Pseudomonas aeruginosa; conditions: 18 h at 37 °C, OD600nm; for MIC: P. aeruginosa ATCC10145, broth microdilution in MHB, at least three independent replicates, range 0.39–100 mg/L; for mean value of growth inhibition: P. aeruginosa
Method: (§1) The antibacterial activity of free CM4 and Synoeca was evaluated by determination of the minimum inhibitory concentration (MIC) against Gram-negative (E. coli HB101, P. aeruginosa ATCC10145, B. cenocepacia IST439, B. cenocepacia IST4113, and K. pneumoniae) and Gram-positive (S. aureus ATCC6538 and S. epidermidis) bacteria. The AMPs were incubated with bacterial suspensions and assessed for bacterial growth, with the MIC defined as the lowest concentration of AMPs that inhibited the visible growth of bacteria (Figure 5).
(§2) E. coli XL1-Blue and BL21(DE3) strains were used for the cloning and production steps, respectively. E. coli HB101, S. aureus ATCC6538, P. aeruginosa ATCC10145, B. cenocepacia IST439, B. cenocepacia IST4113, and clinical isolates of K. pneumoniae and S. epidermidis were used in the broth microdilution MIC assays. The clonal variants of B. cenocepacia were isolated, with a 3-year difference, from the same cystic fibrosis (CF) patient.
(§3) The antibacterial activity of the isolated AMPs was assessed via broth microdilution method to determine the MIC against clinically relevant Gram-negative and Gram-positive bacteria—E. coli HB101, P. aeruginosa ATCC10145, B. cenocepacia IST439, B. cenocepacia IST4113, K. pneumoniae isolate, S. aureus ATCC6538 and S. epidermidis isolate—following the European Committee on Antimicrobial Susceptibility Testing (EUCAST) and the Clinical Laboratory Standards Institute (CLSI) guidelines. A detailed description of the method is provided by Wiegand et al.. Briefly, stock solutions of 2 mg/mL of AMP in sterile mQ water were used for the preparation of two-fold serial dilutions in MHB, to obtain final testing concentrations within the range of 0.39–100 mg/L (200 mg/L for B. cenocepacia strains). For the MIC assays, 50 μL of protein solution and 50 μL of bacterial suspensions in MHB (1 × 10^6 CFUs/mL) were mixed in 96-well plates (Nunc™ Edge 2.0 96-well plates, Thermo Scientific™, Waltham, Massachusetts, EUA) and incubated for 18 h at 37 °C. Growth inhibition was assessed by measuring optical density at 600 nm (OD600nm). The MIC was determined as the lowest concentration of antimicrobial peptide that inhibited the visible growth of the testing bacteria. At least three independent replicates were performed for each peptide and bacterial strain. Data were analysed by GraphPad Prism 6 Software (GraphPad Software, Inc., La Jolla, CA, USA).

[2] = tested on: S. epidermidis isolate; assay: Broth microdilution MIC / growth inhibition; format: cell-based, Staphylococcus epidermidis; conditions: 18 h at 37 °C; for MIC: S. epidermidis clinical isolate, broth microdilution in MHB, OD600nm, at least three independent replicates, range 0.39–100 mg/L; for growth inhibition (complete inhibition): S. epidermidis, within tested range 0.39–100 mg/L
Method: as §1, §2, §3

[3] = tested on: K. pneumoniae isolate; assay: Broth microdilution MIC / growth inhibition; format: cell-based, Klebsiella pneumoniae; conditions: 18 h at 37 °C, OD600nm; for MIC: K. pneumoniae clinical isolate, broth microdilution in MHB, at least three independent replicates, range 0.39–100 mg/L
Method: as §1, §2
as §3, with “For the MIC assays, 50 μL of protein solution and 50 μL of bacterial suspensions in MHB (1 × 10^6 CFUs/mL) were mixed in 96-well plates (Nunc™ Edge 2.0 96-well plates, Thermo Scientific™, Waltham, Massachusetts, EUA) and incubated for 18 h at 37 °C.” left out, “At least three independent replicates were performed for each peptide and bacterial strain.” left out

[4] = tested on: S. aureus ATCC6538; assay: Broth microdilution MIC / growth inhibition; format: cell-based, Staphylococcus aureus; conditions: 18 h at 37 °C; for MIC: S. aureus ATCC6538, broth microdilution in MHB, OD600nm, at least three independent replicates, range 0.39–100 mg/L; for growth inhibition (complete inhibition): S. aureus, within tested range 0.39–100 mg/L
Method: as §1, §2, §3

[5] = tested on: mammalian cells; conditions: cited from earlier work
From the text: In this work, we report the use of A200 as a thermoresponsive protein tag for the production and purification of the following two AMPs, using Escherichia coli as a cell factory: ABP-CM4 (CM4), a 35 amino acid antimicrobial peptide, isolated from the haemolymph of the silkworm Bombyx mori; and Synoeca-MP (Synoeca), a 14 amino acid antimicrobial peptide, isolated from the venom of the Synoeca surinama wasp. CM4 is a member of the cecropin family of peptides, with antibacterial, antifungal, and antitumor activities, while showing no toxicity towards mammalian cells [[26],[28],[29], ...

[6] = tested on: E. coli HB101; assay: Broth microdilution MIC / growth inhibition; format: cell-based, Escherichia coli; conditions: 18 h at 37 °C; for MIC: E. coli HB101, broth microdilution in MHB, OD600nm, at least three independent replicates, range 0.39–100 mg/L; for growth inhibition (complete inhibition): E. coli, within tested range 0.39–100 mg/L
Method: as §1, §2, §3

[7] = tested on: B. cenocepacia IST4113; assay: Broth microdilution MIC / growth inhibition; format: cell-based, Burkholderia cenocepacia; conditions: 18 h at 37 °C, OD600nm; for MIC: broth microdilution in MHB, at least three independent replicates, range up to 200 mg/L
Method: as §1, §2, §3

[8] = tested on: B. cenocepacia IST439; assay: Broth microdilution MIC / growth inhibition; format: cell-based, Burkholderia cenocepacia; conditions: 18 h at 37 °C, OD600nm; for MIC: broth microdilution in MHB, at least three independent replicates, range up to 200 mg/L
Method: as §1, §2, §3

Row | Substance | MIC [1] [µg/mL] | mean value of growth inhibition ([1]; within tested range 0.39–100 mg/L) | MIC [2] [µg/mL] | growth inhibition (complete inhibition) [2] [%] | MIC [3] [µg/mL] | mean value of growth inhibition ([3]; K. pneumoniae, within tested range 0.39–100 mg/L) | MIC [4] [µg/mL] | growth inhibition (complete inhibition) [4] [%] | cytotoxicity against mammalian cell lines ([5]; mammalian cell lines) | MIC [6] [µg/mL] | growth inhibition (complete inhibition) [6] [%] | MIC [7] [µg/mL] | MIC [8] [µg/mL] | mean value of growth inhibition ([1]; peptide 100.00 mg/L) [%] | toxicity towards mammalian cells ([5]; mammalian cells) | growth inhibition ([7]; peptide 100.00 mg/L) | mean value of growth inhibition ([7]; peptide 200.00 mg/L) [%] | growth inhibition ([8]; peptide 100.00 mg/L)
1 | Synoeca-MP | >100.00 | lower than 5% | 6.25 | 100 | >100.00 | lower than 5% | 1.56 | 100 | no significant cytotoxicity | 25.00 | 100 | 12.50 | 12.50 |  |  |  |  | 
2 | ABP-CM4 | >100.00 |  | 12.50 | 100 | 50.00 |  | 3.13 | 100 |  | 50.00 | 100 | 200.00 | ~200.00 | 25 | no toxicity | around 75% | 100 | around 75%
